Laboratory results published in patent US9643991B2, “Process for preparing a novel crystalline form of emamectin benzoate and use the same” (ROTAM AGROCHEM INTERNATIONAL CO., LTD, priority 2015, dated 2017).

What was measured:
[1] = cited from earlier work
[2] = system: Lepidoptera pole larvae and many other pests; settings: cited from earlier work
[3] = Residue of diluted SG formulations passed through the wet sieve; type: physicochemical
Method: The procedure in Example 5 was repeated by using emamectin benzoate crystalline forms A and B mentioned in U.S. Pat. No. 6,486,195.
SG samples prepared in Examples 5 and 6 were diluted with water and their residues were compared by passing through the wet sieve.

[4] = Stability of the crystalline modification during prolonged storage; type: physicochemical

| Substance | Solubility in acetone ([1]; acetone) | Solubility in ethanol ([1]; ethanol) | Solubility in hexane ([1]; hexane) | Solubility in methanol ([1]; methanol) | Solubility in water ([1]; water) | Insecticidal activity higher than other avermectin pesticides ([2]; compared with abamectin, doramectin, ivermectin) | Effective dose ([2]; very low doses) | Residue, Dilution factor 100 ([3]; SG samples of Examples 5 and 6 diluted with water, wet sieve, dilution factor 100) | Residue, Dilution factor 1000 ([3]; SG samples of Examples 5 and 6 diluted with water, wet sieve, dilution factor 1000) | Stability after dilution ([3]; after dilution, compared to other crystal forms) | Conversion to other crystalline modifications [4] |
| --- | --- | --- | --- | --- | --- | --- | --- | --- | --- | --- | --- |
| 4″-deoxy-4″-epi-methylamino avermectin B1a/B1b [Emamectin benzoate] | soluble | soluble | insoluble | soluble | slightly soluble | 1-3 orders of magnitude | 0.084-2 g/ha | – | – | – | – |
| 4″-deoxy-4″-epi-methylamino avermectin B1a/B1b [Crystalline forms V] | – | – | – | – | – | – | – | No residue | No residue | extremely stable after dilution | does not convert to other crystalline modifications |
